Source: PMC10060569 (Frontiers in Pharmacology, 2023)

What was measured:
[1] = biological target: T1, hP2X4R (Homo sapiens, UniProt Q99571); test: TEVC of ATP-induced currents, hP2X4R in X. laevis oocytes (steady-state protocol); assay type: cell-based
T1 construct: expressed in transfected cells; host or cells: Xenopus laevis oocytes (cRNA injection)
T1 sequence (Q99571 1-388): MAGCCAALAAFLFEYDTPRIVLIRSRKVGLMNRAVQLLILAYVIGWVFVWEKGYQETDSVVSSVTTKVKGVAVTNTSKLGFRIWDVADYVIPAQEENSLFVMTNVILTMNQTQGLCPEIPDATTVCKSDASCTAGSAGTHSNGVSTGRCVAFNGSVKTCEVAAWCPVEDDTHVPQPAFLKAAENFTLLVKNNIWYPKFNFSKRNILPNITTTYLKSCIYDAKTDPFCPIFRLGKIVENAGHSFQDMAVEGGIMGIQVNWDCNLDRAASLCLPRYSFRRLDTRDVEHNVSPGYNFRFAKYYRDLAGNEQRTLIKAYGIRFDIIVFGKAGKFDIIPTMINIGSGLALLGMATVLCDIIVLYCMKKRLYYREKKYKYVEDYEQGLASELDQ
Source text: Oocyte expression plasmids encoding the wild-type (wt) and N-terminally His-tagged (His-) fusion constructs of the hP2X2R, hP2X3R, hP2X4R, and hP2X7R, and the mutant His-^20RMVL^23KVIV^23S^26N-hP2X1R, S^15V-rP2X3R, and His-S^15V-hP2X3R were the same as used in previous research ([Hausmann et al., 2006]; [Wolf et al., 2011]; [Hausmann et al., 2014]; [Obrecht et al., 2019]). In most cases, the N-terminal His-tagged variants of P2XRs were used here and in the previous studies to allow biochemical analyses on affinity-purified proteins using the same constructs. Although this was not required for the present study, it allows for better comparability with our previous studies. […]
Ion currents mediated by P2X receptors were evoked by the indicated concentration of ATP or α,β-meATP and were recorded 1 or 2 days after cRNA injection at ambient temperature at a holding potential of −60 mV by two-electrode voltage clamp (TEVC) as previously described ([Hausmann et al., 2006]). […]

[2] = biological target: T2, S15V-rP2X3R (Rattus norvegicus, UniProt P49654, S15V); parameters: method as in Obrecht et al., 2019; settings: previous screening; ref Obrecht et al., 2019; cited from earlier work
T2 construct: expressed in transfected cells; host or cells: Xenopus laevis oocytes (cRNA injection)
T2 sequence (P49654 1-397 S15V): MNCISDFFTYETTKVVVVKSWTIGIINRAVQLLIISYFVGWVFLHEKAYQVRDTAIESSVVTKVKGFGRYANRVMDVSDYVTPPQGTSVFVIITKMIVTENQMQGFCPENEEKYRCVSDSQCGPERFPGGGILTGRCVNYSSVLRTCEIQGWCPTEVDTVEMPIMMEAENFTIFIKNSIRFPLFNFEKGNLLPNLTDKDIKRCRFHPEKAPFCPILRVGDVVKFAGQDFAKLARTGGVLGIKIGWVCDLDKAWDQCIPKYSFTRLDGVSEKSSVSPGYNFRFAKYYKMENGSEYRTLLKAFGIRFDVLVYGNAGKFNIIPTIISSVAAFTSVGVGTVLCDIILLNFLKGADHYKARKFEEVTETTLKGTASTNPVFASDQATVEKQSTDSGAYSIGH

O=C(O)Cc1ccccc1Nc1c(Cl)cccc1Cl [Diclofenac, diclofenac]
IC50 ([1]; 10 µM ATP, steady-state protocol, X. laevis oocytes): 1110 µM
inhibition at 1000 µM ([1]; read-out: Max. inhibition at 1 mM): 61.2%
inhibition of S15V-rP2X3R-mediated currents in screening [2]: > 80%
